# Like-named read-outs stand apart in the source and are kept apart here.
# Tests used:
# [1] = system: recombinant rhesus HPH protein; experiment: HPH enzyme activity assay, effect of cofactors and metal ions (isoform not given); type: biochemical, rhesus (Macaca mulatta)
# [2] = target: rhesus HPH1 (Macaca mulatta, UniProt I2CX88); experiment: biochemical
# Method: (§1) The VBC protein complex was generated by co-expression of Glutathione S-Transferase-VHL (von Hippel Lindau), elongin B and elongin C in Escherichia coli followed by purification of the complex using glutathione affinity resin and size-exclusion chromatography. The HPH enzyme assay is conducted in the well of a 96- or 384-well plate. […] The time-resolved fluorescent signal (excitation at 330 nm; emission at 620 and 665 nm) is read on a plate reader after 1 h of incubation. The ratio of signal at 665 nm to 620 nm is used to calculate the amount of peptide interaction with GST-VBC as a measure of protein hydroxylation.
# (§2) The activity of the HPH proteins was measured using an assay dependent upon VBC-recognition of a hydroxylated peptide. The VBC protein complex was generated by co-expression of Glutathione S-Transferase-VHL (von Hippel Lindau), elongin B and elongin C in Escherichia coli followed by purification of the complex using glutathione affinity resin and size-exclusion chromatography. The HPH enzyme assay is conducted in the well of a 96- or 384-well plate. […] The ratio of signal at 665 nm to 620 nm is used to calculate the amount of peptide interaction with GST-VBC as a measure of protein hydroxylation.
# [3] = target: T1, rhesus HPH3 (Macaca mulatta, UniProt H9FPE4); experiment: HPH enzyme TR-FRET assay (VBC-recognition of hydroxylated HIF peptide), HPH3; type: biochemical; settings: inhibitory activity against rhesus HPH3
# T1 construct: fused on or other part: C-terminal GST tag used for purification and removed with thrombin before the assay
# [4] = target: rhesus HPH2 (Macaca mulatta, UniProt I2CX88); settings: read-out: IC50 HPH2; inhibitory activity against rhesus HPH2
# rhesus HPH2, sequence (I2CX88 1-426): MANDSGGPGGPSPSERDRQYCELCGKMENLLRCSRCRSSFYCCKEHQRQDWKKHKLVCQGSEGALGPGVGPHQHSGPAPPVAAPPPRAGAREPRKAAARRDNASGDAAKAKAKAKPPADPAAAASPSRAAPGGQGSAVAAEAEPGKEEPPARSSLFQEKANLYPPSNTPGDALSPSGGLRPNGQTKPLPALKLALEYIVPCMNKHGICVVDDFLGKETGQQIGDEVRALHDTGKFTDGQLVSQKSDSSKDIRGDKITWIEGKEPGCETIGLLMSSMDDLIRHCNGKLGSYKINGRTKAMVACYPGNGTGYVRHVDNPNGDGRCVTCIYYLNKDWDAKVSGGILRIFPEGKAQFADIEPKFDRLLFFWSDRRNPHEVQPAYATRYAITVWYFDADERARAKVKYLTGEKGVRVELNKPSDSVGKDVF
# Method: as §1, §2
# rhesus HPH1, sequence (I2CX88 1-426): as above
compound,measurement,setting,value
[Cl-].[Cl-].[Co+2] [CoCl2],effect of addition on enzyme activity,[1],inhibited enzyme activity
NNc1nncc2ccccc12 [Hydralazine],IC50,[2],400 µM
same,IC50,[3],54 µM
O=C(O)CNC(=O)C(=O)O [N-oxalylglycine],IC50,[3],0.66 µM
O=C(O)CCC(=O)O [Succinate],IC50,"[2]; read-out: IC50 HPH1, inhibitory activity against rhesus HPH1",200 µM
same,IC50,[4],380 µM
same,IC50,[3],80 µM
[Fe+2] [ferrous iron],effect of addition on enzyme activity,"[1]; recombinant rhesus HPH, isoform not stated",increased the activity of the enzyme

# Source: patent publication US20100240065A1, “Prolyl Hydroxylase Compositions and Methods of Use Thereof” (Boehringer Ingelheim International GmbH, priority 2009, published 2010)
